{
  "source": "patent US7884067B2",
  "about": "“Peptides derived from cadherin and methods of use thereof” (Mount Sinai School of Medicine of New York University, priority 2001, dated 2011)",
  "key": {"[1]": {"system": "E-cadherin/catenin cytoskeletal complex", "assay": "Ionomycin-induced CAJ disassembly in A431 cells, subcellular fractionation and Western blot", "format": "cell-based, human", "details": "30 minutes preincubation with L-685,458, then ionomycin", "protocol": "Subcellular fractionation. Confluent A431 cells (one 100 mm dish) were rinsed and scraped with 4° C. phosphate-buffered saline (PBS). Cells were then placed into 1 ml of buffer A (20 mM Tris-HCl [pH 7.5], 0.25 M sucrose, 10 mM EGTA, 2 mM EDTA, 1× Complete protease inhibitor cocktail, Roche), passed through a 27 gauge needle 10 times, and the obtained cell lysate was centrifuged at 500×g for 10 min at 4° C. The supernatant was then centrifuged at 120,000×g for 45 min at 4° C. to separate the cytosolic and crude membrane fractions. The pellet (crude membrane fraction) was washed twice with buffer A and resuspended by sonication in […] of buffer A containing 1% Triton X-100. The suspension was incubated at 4° C. for 30 min and then centrifuged at 120,000×g for 45 min at 4° C. to separate the membrane and Triton X-100-insoluble fractions. The pellet (Triton X-100-insoluble fraction) was washed twice with buffer A and solubilized by sonication in RIPA buffer. […] of proteins from the different fraction were analyzed by SDS-PAGE.\nIn stable cell-cell adhesion, the E-cadherin/β-catenin complex of the CAJ is anchored to the actin cytoskeleton via catenin and this association is manifested by the insolubility of the complex components in Triton X-100 (Baki et al., (2001)). Induction of apoptosis or calcium influx disrupts cadherin-mediated cell-cell adhesion by cleaving cadherin and disassembling the CAJ complexes. To determine whether the γ-secretase cleavage of E-cadherin is involved in the CAJ disassembly, calcium influx was induced with ionomycin (10 μM) in A431 cells preincubated for 30 minutes in the absence or presence of the γ-secretase inhibitor L-685,458. Cell extracts were fractionated, and analyzed on Western blots with antibodies against cytoplasmic E-cadherin C36 or β- and α-catenins. […] In addition, L-685,458 delayed the ionomycin-induced decrease of cytoskeletal β-catenin and α-catenin and inhibited their release to the soluble cytosol."}, "N-cadherin": {"system": "N-cadherin", "assay": "In vitro γ-secretase-like ε-cleavage assay, membranes of WT-PS1-transfected HEK293 cells", "format": "biochemical, human", "details": "membranes from WT-PS1-transfected clone #7, presence of L-685,458, 37° C. 2 hours", "protocol": "In vitro γ-secretase-like ε-cleavage assay. Cells were washed in PBS, resuspended in 1 ml of 4° C. hypotonic buffer (10 mM MOPS, pH 7.0, 10 mM KCl) and homogenized on ice. A post-nuclear supernatant was prepared by centrifugation at 1000×g for 15 minutes at 4° C. Crude membranes were isolated from the post-nuclear supernatant by centrifugation at 16,000×g for 40 minutes at 4° C. The membranes were then resuspended in […] of assay buffer (150 mM sodium citrate, pH 6.4, 1× Complete protease inhibitor cocktail), and incubated at 37° C. for 2 hours. Samples were either analyzed directly by WB or separated into pellet (P100) and supernatant (S100) fractions by ultracentrifugation for 1 hour at 100,000×g at 4° C. The S100 and P100 fractions were then analyzed by WB.\nMembranes from PS1−/− (FIG. 7C, lane 1) or PS1+/+ (FIG. 7C, lanes 2-4) fibroblasts or from N2a cell cultures (FIG. 7C, lanes 5-6) incubated for 16 hours in the absence or presence of DMSO or L-685,458 ([…]), were incubated at 37° C. for 2 hours, separated by centrifugation in a pellet (P100, FIG. 7C, upper panels) and a soluble (S100, FIG. 7C, lower panels) fractions and then probed on WBs with C32 antibody. […]"}, "c-fos": {"system": "c-fos", "assay": "c-fos mRNA (RT-PCR) and protein (Western blot) in L cells", "format": "cell-based", "protocol": "Reverse Transcriptase (RT)-PCR Analysis. Total RNA was extracted from cells using a RNeasy Mini Kit (Qiagen) according to instructions by the manufacturer. Analysis of gene expression was performed using semiquantitative RT-PCR. The following primers were used: 5′-[…]-3′ (SEQ ID NO: 13) and 5′-[…]-3′ (SEQ ID NO: 14) for c-fos; 5′-[…]-3′ (SEQ ID NO: 15) and 5′-[…]-3′ (SEQ ID NO: 16) for gapdh.\nSemi-quantitative RT-PCR was used to determine relative levels of c-fos or gapdh mRNAs from L cells transfected either with vector (vector) or with 0.5 mg of pN-Cad/CTF2 (N-Cad/CTF2). The graph in FIG. 9C represents the relative abundance of c-fos-specific PCR products following quantitation of the mRNA signals shown in the upper panel.\nExtracts from L cells transfected with increasing amount of pN-Cad/CTF2 were probed on WBs with anti-c-fos (FIG. 9D, upper panel), anti-β-tubulin (FIG. 9D, middle panel) or C32 (FIG. 9D, lower panel) antibodies. Bars in lower panel represent the relative amounts of c-fos protein detected on WBs shown in the upper panel."}},
  "data": [
    {"molecule": "CC(C)C[C@H](NC(=O)[C@H](Cc1ccccc1)C[C@@H](O)[C@H](Cc1ccccc1)NC(=O)OC(C)(C)C)C(=O)N[C@@H](Cc1ccccc1)C(N)=O", "note": "[L-685,458]", "values": [
      {"measurement": "ionomycin-induced decrease of cytoskeletal β-catenin and α-catenin", "setting": "[1]", "result": "delayed"},
      {"measurement": "ionomycin-induced degradation of the full length E-cadherin", "setting": "[1]", "result": "partially inhibited"},
      {"measurement": "ionomycin-induced metabolism of cytoskeletal E-Cad/CTF1", "setting": "[1]", "result": "blocked"},
      {"measurement": "production of soluble cytosolic E-Cad/CTF2", "setting": "[1]", "result": "abolished"},
      {"measurement": "release of β-catenin and α-catenin to the soluble cytosol", "setting": "[1]", "result": "inhibited"},
      {"measurement": "N-Cad/CTF2 production", "setting": "N-cadherin", "result": "no N-Cad/CTF2 was detected"}
    ]},
    {"molecule": "N-Cad/CTF2: chicken cytoplasmic domain of N-cadherin (N-Cad/CTF2) inserted into vector pECE, expressed in L cells (protein) KRRDKERQAKQLLIDPEDDVRDNILKYDEEGGGEEDQDYDLSQLQQPDTVEPDAIKPVGIRRLDERPIHAEPQYPVRSAAPHPGDIGDFINEGLKAADNDPTAPPYDSLLVFDYEGSGSTAGSLSSLNSSSSGGEQDYDYLNDWGPRFKKLADMYGGGDD", "values": [
      {"measurement": "cellular c-fos mRNA", "setting": "c-fos; 0.5 mg of pN-Cad/CTF2, vs vector, FIG. 9C", "result": "markedly reduces"},
      {"measurement": "c-fos protein", "setting": "c-fos; increasing amount of pN-Cad/CTF2, FIG. 9D", "result": "markedly reduces"},
      {"measurement": "levels of β-tubulin", "setting": "c-fos; pN-Cad/CTF2, FIG. 9D", "result": "no effect"},
      {"measurement": "expression of gapdh mRNA", "setting": "c-fos; pN-Cad/CTF2 vs vector, FIG. 9C", "result": "no effect"}
    ]}
  ]
}
